According to patent publication US7442783B2, “Natural IgM antibodies and inhibitors thereof” (The CBR Institute for Biomedical Research, Inc., priority 2004, dated 2008):
“And” between values parts separate entries of the source, which are not always exact repeats. Equal values may be shown once.

Assays:
[1] = tested on: RAG-1^−/− mice; assay: Intestinal RI model in reconstituted RAG-1^−/− mice (histopathology, immunohistochemistry); format: in vivo, mouse; conditions: for mean pathology score: 40 min ischemia, 3 h reperfusion
Procedure: (§1) Surgical protocol for RI was performed as previously described (Zhang et al. (2004) PNAS USA 101:3886-91). […] After 40 minutes of ischemia, the microclip was removed, and reperfusion of the mesenteric vasculature was confirmed by the return of pulsation to the vascular arcade and a change to pink color. The incision was closed, and all animals kept warm for 3 hours. Reconstituted RAG-1^−/− animals received either IgM mixed with peptide or saline in 0.2 ml volume intravenously 30 min before the initial laparotomy. WT animals were treated with saline or peptide i.v. 5 minutes prior to reperfusion. At the end of reperfusion, the ischemic segment of the jejunum was harvested and the central 4 cm was cut for pathological analysis.
(§2) Cryostat sections of intestinal tissues were stained by hematoxylin and eosin (H&E) and examined by light microscopy for mucosal damage. Pathology score was assessed based on procedure by Chiu (Chiu et al, Arch Surg 101: 484-488, 1970; Chiu, et al, Arch Surg 101: 478-483, 1970) that included direct inspection of all microvilli over a 4 cm stretch of jejuneum as described. Zhang et al. (2004) PNAS USA 101:3886-91. For immuno-fluorescence, cryosections fixed with 4% (w/v) paraformaldehyde were incubated for varying periods with either biotin-labeled anti-mouse IgM (Becton Dickinson, Calif.) followed by 1 hour with streptavidin-Alexa-568 (1:500 dilution, Molecular Probes, Oreg.). C4 deposition was detected by staining with FITC-labeled rabbit anti-huC4c (DAKO, Colo.), followed by anti-rabbit-Alexa 488 (Molecular Probes, Oreg.). The specificity of anti-C4c staining was confirmed by staining serial sections with biotin-labeled anti-mouse C4 for 1 hour followed by streptavidin-FITC (Becton Dickinson, Calif.). C3 deposition was detected by treating with FITC-labeled anti-C3 (DAKO, Colo.). Sections were mounted in Anti-fade Mounting Medium with DAPI (Molecular Probes, Oreg.).

[2] = tested on: WT mice; assay: Intestinal RI model in wild type mice (histopathology, immunohistochemistry); format: in vivo, mouse; conditions: peptide i.v. five minutes prior to reperfusion
Procedure: as §1, §2

[3] = target: IgM^CM-22; assay: SPR analysis of peptide binding to IgM^CM-22-coupled surface; parameters: species or system mouse; conditions: calculated from steady-state response levels, 1:1 Langmuir fit; mean±SD, n=2; 25° C.
Procedure: FIG. 9A is a graph showing the surface plasmon resonance for the self-peptide N2. Binding isotherms for samples of the self-peptide N2 with concentration from 10.5 μM to 120 μM injected over the IgM^CM-22-coupled surface.
FIG. 9B is a graph showing the surface plasmon resonance for a control peptide. Binding isotherm for a same-length, random-sequence control peptide (AGCMPYVRIPTA; SEQ ID NO: 62), injected at a concentration of 117 μM over the IgM^CM-22-coupled surface.
(§3) An IgM (IgM^CM-22 or IgM^CM-31) antibody was immobilized by amine coupling in a BiaCore SPR CM5™ chip flowcell at a density of 33,400 response units (RU) ˜33 ng/mm^2 as described. Vorup-Jensen et al, PNAS USA 100: 1873-1878, 2003. Briefly, a reference flow cell was prepared by coupling of ethanolamine-HCl. Peptides, diluted in PBS running buffer, were flowed separately over the IgM-coupled surface and the reference at a rate of 10 μl/min at 25° C. and with the data collection rate at 10 Hz. […] Binding isotherms were derived by subtracting the response in the reference cell from the response of the IgM-coupled surface. Following each run, the surface was regenerated by injecting 40 μl 0.05% (v/v) polyoxyethylenesorbitan monolaureate/PBS.

[4] = tested on: IgM^CM-31; assay: SPR analysis of peptide binding to control IgM^CM-31-coupled surface; parameters: species or system mouse; conditions: peptide injected at 120 μM
Procedure: FIG. 9D is a graph showing the binding isotherm for the injection of the self-peptide N2 at 120 μM over a surface coupled with the control IgM^CM-31.
as §3

[5] = tested on: IgM^CM-22; assay: ELISA screening of M-13 phage clones on IgM^CM-22-coated plate; format: binding, mouse; conditions: five phage clones compared, ELISA (FIG. 6A)
Excerpt: FIG. 6A is a graph showing the ELISA screening of M-13 phage-display library for IgM^CM-22-specific peptides. Symbols: […]-P1 clone; X-P2 clone, ∘-P7 clone; ⋄-P8 clone. The plate was coated with a solution of IgM^CM-22 before addition of varying concentrations of phage-clones. The results are representative of at least three independent experiments.
A 12-mer M-13 phage display library (New England Biolab, Mass.) was screened by 4 rounds with MBL-beads coated with IgM^CM-22 and 2 rounds with IgM^CM-75 according to the manufacturer's recommendation. Phage clones were selected from the enriched pool and the nucleotide sequence of the relevant phage gene determined for at least ten clones. […]
ELISA was performed as described earlier (Zhang et al. (2004) PNAS USA 101:3886-91). Briefly, IgM binding to phage or phage-specific peptides was determined by coating a 96-well plate with saturating amounts of antigen. […] Binding of IgM to NMHC-II was determined by culturing 96-well plates previously coated with specific rabbit antibody (NMHC-II A & B; Covance Research Products; NMHC-II C a gift from Dr. Adelstein, NHLBI, NIH, Bethesda, Md.) or pan-myosin Hc (Sigma, Mo.) with intestinal lysates prepared from IgM^CM-22 reconstituted RAG-1^−/− mice either sham treated or treated for ischemia as described (Zhang et al. (2004) PNAS USA 101:3886-91). […]

[6] = target: IgM^CM-22; assay: ELISA: synthetic peptide P8 inhibits IgM^CM-22 binding of phage clone P8; parameters: species or system mouse; conditions: peptide added to IgM^CM-22-coated plate prior to 5×10^11 PFU phage; estimated; read-out: concentration of P8 peptide yielding 50% inhibition of phage P8 binding to IgM^CM-22
Procedure: FIG. 6B is a bar graph showing that the synthetic peptide P8 inhibits IgM^CM-22 binding of phage clone P8. ELISA was performed with varying concentrations of the synthetic peptide P8 added to the IgM^CM-22-coated plate prior to the addition of 5×10^11 PFU phage. The results are representative of at least three independent experiments.
(§4) ELISA was performed as described earlier (Zhang et al. (2004) PNAS USA 101:3886-91). Briefly, IgM binding to phage or phage-specific peptides was determined by coating a 96-well plate with saturating amounts of antigen. Subsequent to blocking, IgM was added (1 or 10 μg/ml) for 2 hr at 37° C. Plates were washed and then developed with alkaline phosphatase-labeled goat anti-mouse IgM (Sigma, MO). Binding of IgM to NMHC-II was determined by culturing 96-well plates previously coated with specific rabbit antibody (NMHC-II A & B; Covance Research Products; NMHC-II C a gift from Dr. Adelstein, NHLBI, NIH, Bethesda, Md.) or pan-myosin Hc (Sigma, Mo.) with intestinal lysates prepared from IgM^CM-22 reconstituted RAG-1^−/− mice either sham treated or treated for ischemia as described (Zhang et al. (2004) PNAS USA 101:3886-91). Lysates were prepared as described for immune precipitation (see below). Alkaline-phosphatase labeled goat anti-mouse IgM (Sigma, Mo.) was then used to detect bound IgM. […]

[7] = tested on: IgM^CM-22; assay: Titration of peptide with IgM^CM-22; parameters: species or system mouse; conditions: previous titration of peptide with IgM^CM-22
[8] = tested on: antibody deficient mice (RAG-1); assay: Intestinal I/R injury in antibody-deficient (RAG-1) mice reconstituted with hybridoma IgM; format: in vivo, mouse; conditions: IgM injected intravenously 30 minutes before initial laparotomy, permeability index (FIG. 4)
Procedure: IgM or saline was injected intravenously 30 minutes before initial laparotomy. At the end of reperfusion, blood is obtained and permeability index is calculated as the ratio of ^125I counts of dried intestine versus that of blood. Values represent means±standard error; n equals the numbers of mice used in experimental groups. 1=WT plus normal saline; 2=RAG plus normal saline; 3=RAG plus IgM hybridoma CM-22; 4=WT sham control.
This finding was unexpected because they have a normal level of IgM in their blood. These findings led to the hypothesis that a special population of B cells termed B-1 cells are responsible for secreting the pathogenic IgM. […] To identify the specific antibody or antibodies responsible for injury, a panel of hybridoma clones were constructed from an enriched pool of peritoneal B-1 cells harvested from normal mice. The general approach for preparing hybridomas from enriched fraction of peritoneal cells includes harvesting peritoneal cells from mice treated 7 days earlier with IL-10 and subsequently enriched for CD23 negative B cells by negative selection with magnetic beads. Enriched B cells are analyzed by FACS following staining with IgM, Mac-1 and CD23 specific Mab. […]
Twenty-two IgM-secreting hybridoma clones were analyzed by pooling an equal amount of IgM product from each of the clones. […]

[9] = tested on: P8 peptide; assay: ELISA: IgM binding to P8 peptide-coated plates; conditions: plate coated with 50 μg/ml P8
Procedure: FIG. 6C is a bar graph showing specific binding of the P8 peptide to IgM^CM-22. The ELISA plates were coated with 50 μg/ml solution of P8 peptide, followed by addition of IgM^CM-22 or IgM^CM-75 at 1 or 10 μg/ml. IgM binding was detected with a biotinylated rat anti-mouse IgM followed by streptavidin-phosphatase and color reaction. The results are representative of at least three independent experiments.
as §4

[10] = tested on: non-muscle myosin heavy chain-II (NMHC-II) isoforms A, B and C; assay: ELISA: IgM binding to captured NMHC-II from intestinal lysates; parameters: species or system mouse; conditions: NMHC captured from jejuneum lysates of RAG-1^−/− mice
Excerpt: FIG. 8B is a series of graphs showing results of in vitro binding assays of IgM^CM-22 to the isoforms of non-muscle myosin heavy chain-II (NMHC-II). ELISA plates were coated with monoclonal antibodies for 3 different isoforms of NMHC-II (upper left: isoform A, upper right: isoform B, lower left: isoform C and lower right: anti-pan myosin antibody). Bound myosin heavy chain from intestinal lysates was detected by IgM^CM-22 or IgM^CM-31. The results represent mean±standard error of OD 405 nm units and are representative of triplicate samples.
as §4, with “101:3886-91).” for “101:3886-91). Lysates were prepared as described for immune precipitation (see below). Alkaline-phosphatase labeled goat anti-mouse IgM (Sigma, Mo.) was then used to detect bound IgM.”

[11] = tested on: RAG-1^−/− mice; conditions: IgM-reconstituted sham controls (no ischemia); Zhang et al. (2004); cited from earlier work
[12] = peptide mixed with IgM^CM-22 prior to injection in RAG-1^−/− mice

Molecule | IgM and complement deposition in reperfused jejuneum (immunohistology) [1, 12] | mean pathology score [1, 12] | IgM and complement deposition in reperfused tissues (immunohistology) [2] | mean pathology score [2] | Kd [3] [µM] | SPR binding to IgM^CM-31-coupled surface [4] | relative binding of phage clone to IgM^CM-22 [5] | IC50 [6] [µM] | optimal concentration sufficient to block 50-100 μg of IgM^CM-22 (0.1-0.2 μM) [7] [µM] | restoration of I/R injury [8] | IgM binding to P8 peptide-coated plate ([9]; IgM at 1 μg/ml) | IgM binding to P8 peptide-coated plate ([9]; IgM at 10 μg/ml) | IgM and complement C4 and C3 deposition in reperfused jejuneum (immunohistology) ([1]; RAG-1^−/− mice reconstituted with the IgM alone, following RI) | mean pathology score ([1]; RAG-1^−/− mice reconstituted with the antibody alone) | binding of IgM to all three isoforms of NMHC-II (ELISA) [10] | IgM and complement deposition (immunohistology) [11]
LMKNMDPLNDNV [N2] | no deposition of IgM and complement | 13±8 | blocked | 8±5 | 123 ± 61 | no binding was observed |  |  |  |  |  |  |  |  |  | 
NGNNVNGNRNNN [P8] | no evidence of IgM or complement binding | 6±3 | no apparent deposits of IgM or complement | 5.+−.3 |  |  | bound with the highest efficiency | ~10 | 10 |  |  |  |  |  |  | 
IgM^CM-22: natural IgM produced from hybridoma PTA-3507; heavy chain SEQ ID NO: 2, light chain SEQ ID NO: 8 (antibody, listed as Mus musculus) heavy: QVQLQQSGAELVKPGASVKISCKASGYAFSSYWMNWVKQRPGKGLEWIGQIYPGDGDTNYNGKFKGKATLTADKSSSTAYMQLSSLTSEDSAVYFCAREDYYGSDWYFDVWGTGTTVTVSSGKLAFFFLHIPF light: IVMTQSAASLAVSLGQRATISYRASKSVSTSGYSYMHWNQQKPGQPPRLLIYLVSNLESGVPARFSGSGSGTDFTLNIHPVEEEDAATYYCQHIRELTRSEGGPSWK |  |  |  |  |  |  |  |  |  | restored injury | neither IgM bound above background | significantly more | co-localization of IgM and complement C4 and C3 within the microvilli | 31±13 and 31±10 | Above background binding | No binding of IgM or complement
